These compounds were tested on neutrophils (assay: Neutrophil calcium flux assay (5-OXO-ETE-stimulated, Indo-1 fluorescence)). Settings: 5-OXO-ETE-stimulated calcium flux.
Format: cell-based
Protocol: After isolation, neutrophils were resuspended in PBS without calcium and Magnesium (PBS −/−) at a concentration of 5×10^6 cells/ml. 2ul of Indo-1 (1 mM) were added per ml of cells. After incubation at 37° C. for 30 minutes, cells were washed twice in PBS −/− and resuspended at 5×10^6 cells/ml in assay buffer (HBSS 1× with calcium and magnesium and […]). In a 96-well Black optical clear bottom plate 100 μL of neutrophil were dispensed to each well. After incubation at 37° C. for 5 minutes, 50 μL of assay buffer or 3× antagonist were added and incubated for 5 min in a Tecan Spark plate reader (Tecan, Morrisville, NC). Baseline was measured for 30 sec (wavelength setup: excitation: 331 nm and emission:410 nm). When baseline is stable, 50p of 5-OXO-ETE at 200 nM (4×) or HBSS was added to appropriate wells. Fluorescence was measured every 5 seconds for 30 cycles. Results are expressed as Net fluorescence (FLU minus Background and injection peak). All data were analyzed using GraphPad Prism version 9 for Windows (GraphPad, San Diego, CA).

Structure (SMILES) | IC50 [nM]
CC(CC(=O)O)CC(=O)c1c(CCCCCC(O)c2cccc(C(=O)N(C)C)c2)n(C)c2ncc(C#N)cc12 (single isomer, unassigned) [Compound I-317] | < 100
CC(CC(=O)O)CC(=O)c1c(CCCCCC(O)c2cccc(C#N)c2)n(C)c2ncc(Cl)cc12 (single isomer, unassigned) [Compound I-309] | > 300

Same assay, conditions: Neutrophil, 5-OXO-ETE-stimulated calcium flux

Structure (SMILES) | IC50 [nM]
C[C@H](CC(=O)O)CC(=O)c1c(CCCCC[C@H](O)c2cccc(Cl)c2)n(C)c2ncc(Cl)cc12 [Compound I-110] | < 100
CC(CNC(=O)c1c(CCCCOCc2cccc(Cl)c2)n(C)c2ncc(C#N)cc12)C(=O)O (centres unmarked) [Compound I-242] | > 300
C[C@@H](CC(=O)c1c(CCCCCCc2cccc(Cl)c2)n(C)c2ncc(Cl)cc12)Cc1nnn[nH]1 [Compound I-84] | < 100
C[C@H](OCCCCc1c(C(=O)N2CC[C@H](C(=O)O)[C@H]2C)c2cc(C#N)cnc2n1C)c1ccccc1 [Compound I-454] | > 300
C[C@H](CC(=O)O)CC(=O)c1c(CCCCC#Cc2cccnc2)n(C)c2ccc(Cl)cc12 [Compound I-176] | < 100
Cn1c(CCCCCC#CC2CC(F)(F)C2)c(C(=O)N2CC[C@H](C(=O)O)C2)c2cc(C#N)cnc21 [Compound I-343] | > 300
C[C@H](CC(=O)O)CC(=O)c1c(CCCCOCc2cccc(C#N)c2)n(C)c2nc(F)c(Cl)cc12 [Compound I-418] | < 100
C[C@H](CC(=O)O)CC(=O)c1c(CCCCOCc2cccc(OC(F)(F)F)c2)n(C)c2ncc(C#N)cc12 [Compound I-389] | < 100
C[C@H](OCCCCc1c(C(=O)N2CC[C@H](C(=O)O)C2)c2cc(C#N)cnc2n1C)c1ccccc1 [Compound I-453] | > 300
CC(CC(=O)O)CC(=O)c1c2cc(C#N)cnc2n(C)c1[C@H]1CC[C@@H](COCc2cccc(Cl)c2)CC1 (some centres unmarked) [Compound I-400] | > 300
Cn1c(CCCCCCC#CC2CC(F)(F)C2)c(C(=O)N2CC[C@H](C(=O)NCCS(=O)(=O)O)C2)c2cc(C#N)cnc21 [Compound I-464] | > 300
Cn1c(CCCCOCc2cccc(Cl)c2)c(C(=O)N2CC[C@H](C(=O)O)C2)c2cc(Cl)cnc21 [Compound I-175] | > 300
C[C@H](CC(=O)O)CC(=O)c1c(CCCCOCc2ccc(F)cc2)n(C)c2ncc(C#N)cc12 [Compound I-249] | < 100
COc1cccc(COCCCCc2c(C(=O)CC(C)CC(=O)O)c3cc(Cl)cnc3n2C)c1 (centres unmarked) [Compound I-403] | 100 to 300
CC(CC(=O)O)CC(=O)c1c(CCCCCCC=C=CC(F)(F)F)n(C)c2ccc(Cl)cc12 (centres unmarked) [Compound I-304] | > 300
C[C@H](CC(=O)O)CC(=O)c1c(CCCCCOc2ccccn2)n(C)c2ccc(Cl)cc12 [Compound I-131] | > 300
CC(C)CCCCc1c(C(=O)C[C@H](C)CC(=O)O)c2cc(Cl)ccc2n1C [Compound I-70] | 100 to 300
C[C@H](CC(=O)O)CC(=O)c1c(CCCCCCc2cncs2)n(C)c2ncc(C#N)cc12 [Compound I-371] | < 100
CC(C)[C@H](CC(=O)O)CC(=O)c1c(CCCCOCc2ccccc2)n(C)c2ncc(C#N)cc12 [Compound I-436] | > 300
Cn1c(CCCCCCC#CC2CC(F)(F)C2)c(C(=O)N2CC[C@H](c3nnn[nH]3)C2)c2cc(Cl)ccc21 [Compound I-353] | < 100
C[C@H](CC(=O)O)CC(=O)c1c(CCCCOCc2cccc(C#N)c2)n(C)c2cnccc12 [Compound I-394] | < 100

Structure (SMILES) | IC50 [nM]
Cn1c(CCCCCCC#CC2CC(F)(F)C2)c(C(=O)N2CC[C@H](C(=O)NCC(=O)O)C2)c2cc(C#N)cnc21 [Compound I-462] | > 300
C[C@@H](CC(=O)c1c(CCCCCCC#CC2CC(F)(F)C2)n(C)c2ccc(Cl)cc12)Cc1nnn[nH]1 [Compound I-352] | < 100
C[C@H](CC(=O)O)NC(=O)c1c(CCCCOCc2cccc(Cl)c2)n(C)c2ncc(C#N)cc12 [Compound I-238] | > 300
CC(CC(=O)O)CC(=O)c1c(CCOCCNc2cccnc2)n(C)c2ncc(Cl)cc12 (centres unmarked) [Compound I-139] | > 300
C[C@H](CC(=O)c1c(CCCCOCc2ccccc2)n(C)c2ncc(C#N)cc12)Cc1nnn[nH]1 (stereo in doubt) [Compound I-360] | > 300
C[C@H](CC(=O)O)CC(=O)c1c(CCCCCC#CC2CC(F)(F)C2)n(C)c2ccc(Cl)cc12 [Compound I-330] | > 300
C[C@H](CC(=O)O)CC(=O)c1c(CCCCCN(C)c2ncccn2)n(C)c2ccc(Cl)cc12 [Compound I-124] | 100 to 300
C[C@H](CC(=O)O)CC(=O)c1c(CCCCOCC23CC(C#N)(C2)C3)n(C)c2ccc(Cl)cc12 [Compound I-108] | 100 to 300
Cn1c(CCCCCCc2cccc(Cl)c2)c(C(=O)N2CC[C@@H](C(=O)O)C2)c2cc(Cl)ccc21 [Compound I-120] | 100 to 300
C[C@H](CC(=O)O)CC(=O)c1c(CCCCOCc2cccc(C#N)c2)n(C)c2ccncc12 [Compound I-396] | < 100
CC(CC(=O)O)CC(=O)c1c(CCCOCC(F)(F)c2cccc(Cl)c2)n(C)c2ccc(Cl)cc12 (centres unmarked) [Compound I-430] | < 100
C[C@@H](CC(=O)O)CC(=O)c1c(CCCCOCc2ccc(F)cc2)n(C)c2ncc(Cl)cc12 [Compound I-216] | > 300
CC(CC(=O)O)CC(=O)c1c(CCOCCNc2ccccc2)n(C)c2ncc(C#N)cc12 (centres unmarked) [Compound I-289] | 100 to 300
CC(CC(=O)O)CC(=O)c1c(CCCCCCc2cccc(Cl)c2)n(C[C@@H](O)CO)c2ncc(C(N)=O)cc12 (some centres unmarked) [Compound I-283] | 100 to 300
Cn1c(CCCCCCC#CC2CC(F)(F)C2)c(C(=O)N2CC[C@@H](C(=O)O)C2)c2cc(C#N)cnc21 [Compound I-341] | > 300
C[C@H](CC(=O)O)CC(=O)c1c(CCCCOCc2cccc(Cl)c2)[nH]c2ccc(Cl)cc12 [Compound I-189] | 100 to 300
CC(CC(=O)O)CC(=O)c1c(CCCCCCc2cscn2)n(C)c2ncc(C#N)cc12 (centres unmarked) [Compound I-373] | 100 to 300
C[C@H](CC(=O)O)CC(=O)c1c(CCCCC(=O)Nc2cc(Cl)ccc2O)n(C)c2ccc(Cl)cc12 [Compound I-146] | 100 to 300
C[C@H](CC(=O)O)CC(=O)c1c(CCCCO[C@@H](C)c2ccccc2)n(C)c2ncc(C#N)cc12 [Compound I-432] | < 100
C[C@@H](CC(=O)O)CC(=O)c1c(CCCCOCc2cccc(Cl)c2)n(C)c2cnc(Cl)cc12 [Compound I-411] | > 300
C[C@@H](CC(=O)O)CC(=O)c1c(CCCCCOCc2ccccc2)n(C)c2ncc(C#N)cc12 [Compound I-423] | > 300

Structure (SMILES) | IC50 [nM]
C[C@H](CC(=O)O)CC(=O)c1c(CCOCC#Cc2ccc(F)nc2)n(C)c2ncc(Cl)cc12 [Compound I-229] | 100 to 300
C[C@H](CC(=O)O)CC(=O)c1c(CCCCCCc2cccc(Cl)c2)n(C)c2ccc(OC(F)(F)F)cc12 [Compound I-97] | < 100
Cn1c(CCCCOCc2cccc(Cl)c2)c(C(=O)N2CC[C@H](c3nnn[nH]3)C2)c2cc(C(F)(F)F)cnc21 [Compound I-184] | > 300
Cc1ccccc1COCCCCc1c(C(=O)CC(C)CC(=O)O)c2cc(C#N)cnc2n1C (centres unmarked) [Compound I-450] | > 300
C[C@H](CC(=O)O)CC(=O)c1c(CCCCCCc2cnccn2)n(C)c2ccc(Cl)cc12 [Compound I-81] | 100 to 300
CC(CN(C)C(=O)c1c(CCCCCCc2cccc(Cl)c2)n(C)c2ccc(Cl)cc12)C(=O)O (centres unmarked) [Compound I-243] | > 300
COC(=O)[C@H]1CCN(C(=O)c2c(CCCCCCC#CC3CC(F)(F)C3)n(C)c3ncc(C#N)cc23)[C@@H]1C [Compound I-351] | > 300
CC(CC(=O)O)CC(=O)c1c(CCCCSCc2ccccc2)n(C)c2ncc(C#N)cc12 (centres unmarked) [Compound I-426] | > 300
CC(CC(=O)O)CC(=O)c1c(CCCCCC(O)c2ccc(F)cc2)n(C)c2ncc(C#N)cc12 (centres unmarked) [Compound I-311] | > 300
CC(=O)NCCCCCc1c(C(=O)C[C@H](C)CC(=O)O)c2cc(Cl)ccc2n1C [Compound I-126] | > 300
C[C@H](CC(=O)O)CC(=O)c1c(CCCCCCc2cccc(Cl)c2)[nH]c2ccc(Cl)cc12 [Compound I-144] | < 100
CC(CC(=O)O)CC(=O)c1c(CCCCCCc2cccc(Cl)c2)n(C)c2ccc(C(F)(F)F)cc12 (centres unmarked) [Compound I-58] | < 100
C[C@H](CC(=O)O)CC(=O)c1c(CCCCCCc2ccccn2)n(C)c2ccc(Cl)cc12 [Compound I-54] | 100 to 300
C[C@@H](CC(=O)O)CC(=O)c1c(CCCCCCc2cncs2)n(C)c2ncc(C#N)cc12 [Compound I-372] | > 300
C[C@H](CC(=O)O)CC(=O)c1c(CCCCCNc2cccnc2)n(C)c2ccc(Cl)cc12 [Compound I-141] | > 300
C[C@H](CC(=O)O)CC(=O)c1c(CCCCOCc2cccc(OC(F)(F)F)c2)n(C)c2cnccc12 [Compound I-408] | < 100
CC(CC(=O)O)CC(=O)c1c(CCCCCC(O)c2cccc(C(=O)N(C)C)c2)n(C)c2ncc(C#N)cc12 (centres unmarked) [Compound I-314] | < 100
CC(CC(=O)O)CC(=O)c1c(CCCCCCC#CC2CC(F)(F)C2)n(C)c2ncc(C#N)cc12 (centres unmarked) [Compound I-322] | < 100
CC(CC(=O)O)CC(=O)c1c(CCCCOCc2cc(F)cc(F)c2)n(C)c2ncc(C#N)cc12 (centres unmarked) [Compound I-387] | 100 to 300
C[C@H](CC(=O)O)CC(=O)c1c(CCCCOCc2cccc(C#N)c2)n(C)c2cc(F)ccc12 [Compound I-413] | < 100
C[C@H](CC(=O)O)CC(=O)c1c(CCCCCCCC#CC2CC(F)(F)C2)n(C)c2ccc(Cl)cc12 [Compound I-331] | < 100

Source: patent publication US20250154145A1, “OXER1 ANTAGONISTS AND USES THEREOF” (Fairhaven Pharmaceuticals Ins., priority 2021, published 2025)
